ChEMBL document CHEMBL1139050, “Specific interactions with intra- and intermolecular G-quadruplex DNA structures by hydrosoluble coronene derivatives: a new class of telomerase inhibitors” (Bioorg Med Chem, 2007)

target: Telomerase reverse transcriptase (Homo sapiens) (UniProt O14746); assay: Inhibition of telomerase at 10 uM after 30 mins by TRAP assay
Sequence (O14746 whole entry): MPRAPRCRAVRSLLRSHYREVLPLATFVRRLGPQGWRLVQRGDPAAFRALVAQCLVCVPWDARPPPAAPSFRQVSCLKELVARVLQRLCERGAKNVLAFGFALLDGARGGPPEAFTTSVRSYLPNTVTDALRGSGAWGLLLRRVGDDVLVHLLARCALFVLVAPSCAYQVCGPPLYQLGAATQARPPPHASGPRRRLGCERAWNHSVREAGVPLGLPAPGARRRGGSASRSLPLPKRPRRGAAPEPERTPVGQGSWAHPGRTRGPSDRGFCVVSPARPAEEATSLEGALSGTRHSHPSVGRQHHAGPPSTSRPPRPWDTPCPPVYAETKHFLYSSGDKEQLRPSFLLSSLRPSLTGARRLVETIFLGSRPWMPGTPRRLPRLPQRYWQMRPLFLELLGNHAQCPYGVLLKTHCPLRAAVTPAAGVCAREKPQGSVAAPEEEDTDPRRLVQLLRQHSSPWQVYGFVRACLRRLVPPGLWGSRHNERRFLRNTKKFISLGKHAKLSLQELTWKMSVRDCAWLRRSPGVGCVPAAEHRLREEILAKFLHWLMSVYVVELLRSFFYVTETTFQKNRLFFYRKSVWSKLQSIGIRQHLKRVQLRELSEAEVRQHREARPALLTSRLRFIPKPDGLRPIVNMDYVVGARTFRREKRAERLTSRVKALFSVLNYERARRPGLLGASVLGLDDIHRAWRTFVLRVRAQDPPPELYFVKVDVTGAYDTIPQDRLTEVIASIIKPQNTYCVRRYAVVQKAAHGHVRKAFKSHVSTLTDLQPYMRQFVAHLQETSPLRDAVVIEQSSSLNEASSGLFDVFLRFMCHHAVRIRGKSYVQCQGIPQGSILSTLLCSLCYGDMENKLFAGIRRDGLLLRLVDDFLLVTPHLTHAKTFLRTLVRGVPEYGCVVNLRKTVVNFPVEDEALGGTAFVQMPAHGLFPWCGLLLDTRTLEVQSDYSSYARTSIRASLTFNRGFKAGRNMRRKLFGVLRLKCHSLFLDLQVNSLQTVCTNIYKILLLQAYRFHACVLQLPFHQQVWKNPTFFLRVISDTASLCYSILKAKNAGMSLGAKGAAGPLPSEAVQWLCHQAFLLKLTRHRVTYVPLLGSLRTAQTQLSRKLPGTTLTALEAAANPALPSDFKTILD

inhibition [%]	SMILES
66	CN(C)CCCn1c(=O)c2cc3cc(CCN4CCN(C)CC4)c4cc5c(=O)n(CCCN(C)C)c(=O)c6cc7cc(CCN8CCN(C)CC8)c8cc(c1=O)c2c1c3c4c(c65)c7c81
38	O=c1c2cc3cc(CCN4CCCCC4)c4cc5c(=O)n(CCN6CCCCC6)c(=O)c6cc7cc(CCN8CCCCC8)c8cc(c(=O)n1CCN1CCCCC1)c2c1c3c4c(c65)c7c81
44	CN1CCN(CCc2cc3cc4c(=O)n(CCN5CCCCC5)c(=O)c5cc6c(CCN7CCN(C)CC7)cc7cc8c(=O)n(CCN9CCCCC9)c(=O)c9cc2c2c3c(c45)c6c7c2c89)CC1
52	CN(C)CCCn1c(=O)c2cc3cc(CCN4CCCCC4)c4cc5c(=O)n(CCCN(C)C)c(=O)c6cc7cc(CCN8CCCCC8)c8cc(c1=O)c2c1c3c4c(c65)c7c81
